{"source": "paper PMC9728188", "about": "“Cloning and Functional Characterization of Putative Escherichia coli ABC Multidrug Efflux Transporter YddA” (Journal of Microbiology and Biotechnology, 2020)", "format_in_all_cases": "cell-based", "key": {"[1]": {"target": "T1, YddA (Escherichia coli, UniProt P31826)", "T1 sequence (P31826 whole entry)": "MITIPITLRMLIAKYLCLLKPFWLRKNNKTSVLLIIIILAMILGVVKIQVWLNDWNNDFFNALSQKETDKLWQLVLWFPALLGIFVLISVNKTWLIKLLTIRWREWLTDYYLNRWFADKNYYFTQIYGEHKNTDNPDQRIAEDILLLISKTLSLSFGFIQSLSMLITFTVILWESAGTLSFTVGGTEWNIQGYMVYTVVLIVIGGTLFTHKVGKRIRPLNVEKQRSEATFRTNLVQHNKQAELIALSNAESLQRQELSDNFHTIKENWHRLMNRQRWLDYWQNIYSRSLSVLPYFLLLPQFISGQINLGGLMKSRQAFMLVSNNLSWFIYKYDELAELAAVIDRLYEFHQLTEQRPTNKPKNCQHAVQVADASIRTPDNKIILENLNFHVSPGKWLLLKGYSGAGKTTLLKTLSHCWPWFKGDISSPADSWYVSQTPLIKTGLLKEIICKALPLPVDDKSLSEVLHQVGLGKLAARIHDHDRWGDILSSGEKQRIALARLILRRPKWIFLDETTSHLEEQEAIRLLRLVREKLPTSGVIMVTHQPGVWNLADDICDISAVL", "experiment": "inhibition of norfloxacin efflux in whole cells (fluorescence)", "source_text": "inhibition of norfloxacin efflux in whole cells (fluorescence) on YddA | Efflux of norfloxacin by YddA transporter was inhibited by reserpine"}, "[2]": {"target": "T1, YddA", "experiment": "fluorescence efflux and accumulation assays in whole cells, yddA knockout vs parent strains; also inhibits norfloxacin efflux"}, "[3]": {"target": "T1, YddA", "experiment": "fluorescence efflux and accumulation assays in whole cells, yddA knockout vs parent strains"}}, "data": [{"smiles": "COC(=O)[C@H]1[C@H]2C[C@@H]3c4[nH]c5cc(OC)ccc5c4CCN3C[C@H]2C[C@@H](OC(=O)c2cc(OC)c(OC)c(OC)c2)[C@@H]1OC", "note": "[reserpine]", "values": [{"measurement": "IC50", "setting": "[1]", "result": 120, "unit": "µM"}]}, {"smiles": "CC[n+]1c(-c2ccccc2)c2cc(N)ccc2c2ccc(N)cc21", "note": "[EB, ethidium bromide]", "values": [{"measurement": "fluorescence efflux and accumulation assays in whole cells, yddA knockout vs par", "setting": "[2]", "result": "indicating that yddA knockout reduced EB efflux, which increased the accumulation of EB in cells"}]}, {"smiles": "CCn1cc(C(=O)O)c(=O)c2cc(F)c(N3CCNCC3)cc21", "note": "[norfloxacin]", "values": [{"measurement": "fluorescence efflux and accumulation assays in whole cells, yddA knockout vs par", "setting": "[3]", "result": "The results showed that knockout of yddA led to less norfloxacin efflux out of cells."}]}]}
